Activity calls are given as the source filed them. The calls are words filed in the database; no cut-off is given here.
Test system: Nucleic Acid
Assay: Binding affinity to DNA assessed as DNA adduct formation
Format: nucleic-acid assay

SMILES	Activity
COc1cccc2c1c(/N=c1\[nH]cnc3c1ncn3[C@H]1C[C@H](O)[C@@H](CO)O1)c1c3c(cc4c(c32)OCO4)C(=O)N1	Active
CC(=O)Nc1ccc2c(c1)Cc1ccccc1-2	Active
COc1cccc2c1c(Nc1nc3c(ncn3[C@H]3C[C@H](O)[C@@H](CO)O3)c(=O)[nH]1)c1c3c(cc4c(c32)OCO4)C(=O)N1	Active
O=C1Nc2cc3ccccc3c3c4c(cc1c23)OCO4	Active
COc1cccc2c1cc1c3c(cc4c(c32)OCO4)C(=O)N1	Active
O=C1Nc2c(Nc3nc4c(ncn4[C@H]4C[C@H](O)[C@@H](CO)O4)c(=O)[nH]3)c3ccccc3c3c4c(cc1c23)OCO4	Active
O=C1Nc2c(/N=c3\[nH]cnc4c3ncn4[C@H]3C[C@H](O)[C@@H](CO)O3)c3ccccc3c3c4c(cc1c23)OCO4	Active
